From patent US20160060288A1, “Ester derivatives of 7-alpha-[9-(4,4,5,5,5-pentafluoropentylsulfinyl)nonyl)-estra-1,3,5(10)-triene-3,17beta-diol having anticancer activity and preparation method thereof” (XI'ANLIBANG PHARMACEUTICAL TECHNOLOGY CO., LTD., priority 2013, published 2016)
Values after ≈ are worked out from the molar mass of the structure shown.

Experiments:
[1] = test system: human breast cancer MCF-7; experiment: Growth inhibition of human breast cancer MCF-7 xenografted in nude mice; type: in vivo, BALB/c female nude mice; conditions: oiling agent, 100 mg/kg s.c. once, 28 days after administration; for Tumor weight: X ± SD; for Tumor inhibition rate: from tumor weight vs control
From the text: Test drugs: fulvestrant, Compounds II and X are dispersed in oil and sterilized to be prepared as oiling agents respectively.

[2] = physchem; conditions: thermodynamic from solid
[3] = Body weight of MCF-7 xenografted nude mice; conditions: oiling agent, 100 mg/kg s.c. once, 28 days after administration, X ± SD
[4] = Solubility experiments of fulvestrant and ester derivatives in different oils and solvents; conditions: thermodynamic from solid
[5] = cited from earlier work
[6] = oil or lipid, Solubility in soybean oil
[7] = organic solvent or mixture, Solubility in propylene glycol

For `CCCCCCCCCCCCCCCC(=O)OC1CCC2C3C(CCCCCCCCC[S+]([O-])CCCC(F)(F)C(F)(F)F)Cc4cc(O)ccc4C3CCC12C` (centres unmarked) [Compound II], the Tumor weight [1] was 0.426 ± 0.306 g, the Tumor inhibition rate [1] was 64.90% and the solubility ([2]; oil or lipid, Solubility in castor oil) was > 100000 µg/mL. For the same molecule, the solubility ([2]; oil or lipid, Solubility in medium-chain oil) was > 10000 µg/mL, the solubility [2, 6] was > 100000 µg/mL and the solubility ([2]; organic solvent or mixture, Solubility in PEG 400) was 2900 µg/mL (≈ 3.43 mM). It also gave a solubility [2, 7] of 10200 µg/mL (≈ 12.1 mM).

`CC(CCC(C(=O)OC1CCC2C3C(CCCCCCCCC[S+]([O-])CCCC(F)(F)C(F)(F)F)Cc4cc(O)ccc4C3CCC12C)C(C)CC(C)(C)C)CC(C)(C)C` (centres unmarked) [Compound IV] gave a solubility [2, 6] of 28000 µg/mL (≈ 32.1 mM) and a solubility [2, 7] of 7100 µg/mL (≈ 8.13 mM).

For `CCCCCCCC/C=C/C(=O)OC1CCC2C3C(CCCCCCCCC[S+]([O-])CCCC(F)(F)C(F)(F)F)Cc4cc(OC(=O)CCC)ccc4C3CCC12C` (centres unmarked) [Compound X], the Tumor weight [1] was 0.402 ± 0.711 g and the Tumor inhibition rate [1] was 65.93%.

Work on `CCCCCCCC/C=C/C(=O)OC1CCC2C3C(CCCCCCCCC[S+]([O-])CCCC(F)(F)C(F)(F)F)Cc4cc(O)ccc4C3CCC12C` (centres unmarked) [Compound V] yielded a solubility [2, 6] of 122000 µg/mL (≈ 158 mM) and a solubility [2, 7] of 12200 µg/mL (≈ 15.8 mM).

In the case of `CCCCCCCCCCC(=O)OC1CCC2C3C(CCCCCCCCC[S+]([O-])CCCC(F)(F)C(F)(F)F)Cc4cc(O)ccc4C3CCC12C` (centres unmarked) [Compound I], the solubility [2, 6] is reported as 255000 µg/mL (≈ 329 mM) and the solubility [2, 7] is reported as 2900 µg/mL (≈ 3.74 mM).

`CC12CCC3c4ccc(O)cc4CC(CCCCCCCCC[S+]([O-])CCCC(F)(F)C(F)(F)F)C3C1CCC2O` (stereo not drawn) [Fulvestrant, 7-α-[9-(4,4,5,5,5-pentafluoropentylsulfinyl)nonyl]-estra-1,3,5(10)-triene-3,17β-diol] gave a Final body weight [3] of 15.800 ± 1.166 g, a Tumor weight [1] of 0.392 ± 0.443 g and a Tumor inhibition rate [1] of 66.78%. The solubility ([4]; PEG 400, organic solvent or mixture, Solubility in PEG 400, PEG 400) was 6900 µg/mL (≈ 11.4 mM), the solubility ([4]; propylene glycol, organic solvent or mixture, Solubility in propylene glycol) was 10200 µg/mL (≈ 16.8 mM) and the solubility ([4]; soybean oil, oil or lipid, Solubility in soybean oil) was 5000 µg/mL (≈ 8.24 mM). For the same molecule, the “Solubility in Migloyl 810” value ([5]; Migloyl 810, 25° C.) was 3060 µg/mL (≈ 5.04 mM), the “Solubility in Migloyl 812” value ([5]; Migloyl 812, 25° C.) was 2720 µg/mL (≈ 4.48 mM) and the “Solubility in Span 85” value ([5]; Span 85, 25° C.) was 3790 µg/mL (≈ 6.25 mM). The “Solubility in benzyl alcohol” value ([5]; benzyl alcohol, 25° C.) was > 200000 µg/mL, the “Solubility in benzyl benzoate” value ([5]; benzyl benzoate, 25° C.) was 6150 µg/mL (≈ 10.1 mM) and the “Solubility in castor oil” value ([5]; castor oil, 25° C.) was 20000 µg/mL (≈ 33 mM). The “Solubility in castor oil (reported value)” value ([5]; castor oil, * denotes reported value) was 20* mg/mL, the Solubility in ethanol ([5]; ethanol, 25° C.) was > 200000 µg/mL and the “Solubility in ethyl oleate” value ([5]; ethyl oleate, 25° C.) was 1250 µg/mL (≈ 2.06 mM). For the same molecule, the “Solubility in isopropyl myristate” value ([5]; isopropyl myristate, 25° C.) was 800 µg/mL (≈ 1.32 mM), the “Solubility in peanut oil” value ([5]; peanut oil, 25° C.) was 450 µg/mL (≈ 0.742 mM) and the “Solubility in sesame oil” value ([5]; sesame oil, 25° C.) was 580 µg/mL (≈ 0.956 mM). The Solubility in water ([5]; water, 25° C.) was 1 µg/mL (≈ 0.00165 mM) and the Water solubility ([5]; water) was “about 10 ng/mL”.
